Reference: patent publication US11266668B2, “Dietary supplement for glycemia control and diabetes prevention” (WORLD PHARMACEUTICAL TECHNOLOGY, LLC., priority 2018, dated 2022)
Marks after values point to notes of the source that are not given here.

Experiments:
[1] = clinical phase I dose-escalation trial; cited from earlier work
Sprague-Dawley (SD) rats = experiment: sucrose loading test (postprandial blood glucose after sucrose gavage); assay type: in vivo, rat; settings: male SD rats, sucrose 2.0 g/kg gavage, 5 mg/kg
Procedure: The inhibitory effect of Example Formula 1 and Example Formula 2 (see Table 1 and Table 2) on postprandial hyperglycemia after carbohydrate loading in Sprague-Dawley (SD) rats was assessed. All animal studies were performed according to the Act on Welfare and Management of Animals law—Act No. 105 of Oct. 1, 1973. Six week-old male SD rats were utilized and fed a solid diet for one week. Rats were housed five per cage in a room with a 12:12 hour light:dark cycle and an ambient temperature of 22-25° C. After 4 groups (n=5) were fasted for one day, 2.0 g/kg of sucrose were gavaged concurrently with Example Formula 1 (200 and 400 mg/kg) (e.g., provided at 200 or 400 mg total weight of Example Formula 1 per 1 Kg of the testing subject or patient) or 5 mg/kg Acarbose. The blood samples were collected from the tail after treatment and blood glucose concentrations were determined at 0, 0.5, 1, and 2 hours by utilizing glucose oxidase method. FIG. 1 and FIG. 2 show the effect of different dosage of Example Formula 1 or Example Formula 2 on sucrose loading test. After fasting for one day, 7-week-old, male SD rats were gavaged with sucrose solution (2.0 g/kg) with or without (the Control sample) Example Formula 1 or Example Formula 2. Acarbose was utilized as a positive control. Each point in the drawing represents mean±SD. (n=5). *p<0.05, **p<0.01 versus their corresponding controls at the same time points by unpaired Student's t-test. After fasting for one day, 7-week-old, male SD rats were gavaged with sucrose solution (2.0 g/kg) with or without the Comparative Example Formula 1. Acarbose was used as a positive control. Each point represents mean±SD. (n=5). *p<0.05, **p<0.01 versus their corresponding controls at the same time points by unpaired Student's t-test. Table 4 below lists the blood glucose level of rats under different dosage of Example Formula 1 and Comparative Example Formula 1 on sucrose loading test (unit: mM). The procedure is as described above. After fasting for one day, 7-week-old, male SD rats were gavaged with sucrose solution (2.0 g/kg) with or without Example Formula 1 or Comparative Example Formula 1. Acarbose was used as a positive control. Each point represents mean±SD. (n=5). *p<0.05, **p<0.01 versus their corresponding controls at the same time points by unpaired Student's t-test.

In the case of `O=CC[C@@H](O)[C@H](O)[C@H](O)CO` [2-deoxy-D-glucose], the clinically tolerable dose [1] is given as 63 mg/kg.

With `C[C@H]1O[C@H](O[C@H]2[C@H](O)[C@@H](O)[C@@H](O[C@H]3[C@H](O)[C@@H](O)C(O)O[C@@H]3CO)O[C@@H]2CO)[C@H](O)[C@@H](O)[C@@H]1N[C@H]1C=C(CO)[C@@H](O)[C@H](O)[C@H]1O` (some centres unmarked) [Acarbose] the blood glucose level (Sprague-Dawley (SD) rats; time 0 hour) was 5.4 ± 0.2 mM, the blood glucose level (Sprague-Dawley (SD) rats; time 0.5 hour) was 6.5 ± 0.3** mM and the blood glucose level (Sprague-Dawley (SD) rats; time 1 hour) was 6.9 ± 0.4** mM. It also gave a blood glucose level (Sprague-Dawley (SD) rats; time 2 hour) of 6.5 ± 0.4 mM.
